In brackets after ≈: the same amount, converted by molar mass. Like-named read-outs stand apart in the source and are kept apart here. Where only a bound is given, the exact number is not on record here.

Results on one compound are retold here after patent US11331289B2, “Antimicrobial composition” (priority 2017, dated 2022).

Experiment [1] concerns Malassezia pachydermatis. The experiment can be described thus: MIC, microdilution broth method. It counts as cell-based. As to conditions: for MIC: Malassezia pachydermatis, read-out: MIC. The method, then:
Six clinical isolates from dog skin (n=5) and cats (n=1) which had been sent to EnvA (mycology laboratory of BioPôle Alfort) for mycological culture. The isolates, collected in March 2016, were identified as belonging to the species Malassezia pachydermatis. They were maintained by regular transplanting on medium of Sabouraud. Isolates are subcultured 2 to 3 days prior to testing sensitivity.
A stock solution of Oxyclozanide at 1600 μg/mL is prepared in DMSO. The stock solution is then diluted in DMSO to obtain a concentration range of 3.125 μg/ml to 800 μg/ml. A 1/50 dilution of this range and of the stock solution is then carried out in ultrapure water so as to obtain a concentration range of 0.0625 μg/ml to 32 μg/ml and containing 2% of DMSO. 50 μl of these solutions are deposited in wells of a microplate and then 50 μl of inoculum calibrated at 10^6 CFU/ml in Sabouraud/Tween 40 (2%) are added. A range of tested concentrations ranges from 0.0312 μg/mL to 16 μg/mL. The final concentration of DMSO in contact with the inoculum is 1%. The same dilution and seeding protocol was followed with a stock solution of amphotericin B at 1600 μg/ml. A “placebo” (or yeast growth control) column is systematically included in the plates. The plates are incubated at 37 ° C. The reading is done at 24 and 48 h. Several trials were conducted and protocol adjustments were required. In particular, the concentration of the inoculum had to be reduced for antifungal activity to be observed.
(In general: Broth dilution looks for growth in wells or tubes with falling amounts of substance.)

Experiment [2] deals with Methicillin-Resistant Staphylococcus pseudintermedius (MRSP) 16125, 16127. The experiment can be described thus: Oxyclo MIC of MRSP strains. The experiment is classed as cell-based.

Broadly, the MIC is the least concentration at which growth counts as inhibited. Take `O=C(Nc1cc(Cl)cc(Cl)c1O)c1c(O)c(Cl)cc(Cl)c1Cl` [Oxyclozanide]: the MIC stood at 8 µg/mL (≈ 19.9 µM) in experiment [1] (Isolate 1, Assay 1, 10^6 CFU/ml); 4 µg/mL (≈ 9.96 µM) in experiment [1] (Isolate 1, Assay 2, 10^6 CFU/ml); 8 µg/mL (≈ 19.9 µM) in experiment [1] (Isolate 2, Assay 1, 10^6 CFU/ml); 8 µg/mL (≈ 19.9 µM) in experiment [1] (Isolate 2, Assay 2, 10^6 CFU/ml); 8 µg/mL (≈ 19.9 µM) in experiment [1] (Isolate 3, Assay 1, 10^6 CFU/ml); 16 µg/mL (≈ 39.9 µM) in experiment [1] (Isolate 3, Assay 2, 10^6 CFU/ml). For the same compound, the MIC in experiment [1] (Isolate 4, Assay 1, 10^6 CFU/ml) was greater than 16 µg/mL; in experiment [1] (Isolate 4, Assay 2, 10^6 CFU/ml), greater than 16 µg/mL; in experiment [1] (Isolate 5, Assay 1, 10^6 CFU/ml), 8 µg/mL (≈ 19.9 µM); in experiment [1] (Isolate 5, Assay 2, 10^6 CFU/ml), 8 µg/mL (≈ 19.9 µM); in experiment [1] (Isolate 6, Assay 1, 10^6 CFU/ml), 8 µg/mL (≈ 19.9 µM); in experiment [1] (Isolate 6, Assay 2, 10^6 CFU/ml), 16 µg/mL (≈ 39.9 µM). Moreover, the MIC in experiment [2] (MRSP 16125) stood at 0.5 µg/mL; in experiment [2] (MRSP 16127), 0.25 µg/mL. The “Activity with respect to Malassezia pachydermatis” value in experiment [1] (isolate 3) is listed as “no activity”; in experiment [1] (six clinical isolates) it was “active”.
